Data on five compounds can be found in paper PMC11613437, “Prioritization of Eleven-Nineteen-Leukemia Inhibitors as Orally Available Drug Candidates for Acute Myeloid Leukemia” (Journal of Medicinal Chemistry, 2024).

“And” between values parts separate entries of the source, which are not always exact repeats. Equal entries are not always repeated. Where two headings read alike, the source gives them in different places.

For data set [1], the target named is T1, ENL YEATS domain (Homo sapiens, UniProt Q03111).
T1 construct: Biotinylated-ENL YEATS was immobilized onto SSA biosensors; biotin (biotinylated)
T1 sequence (Q03111 1-138 limits assumed): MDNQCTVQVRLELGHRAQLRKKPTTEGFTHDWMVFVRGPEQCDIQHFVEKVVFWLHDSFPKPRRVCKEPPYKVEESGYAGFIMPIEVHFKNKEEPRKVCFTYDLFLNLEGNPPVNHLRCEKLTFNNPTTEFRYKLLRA
The note with it: cited from earlier work.

The nature of data set [2]: Cell toxicity assay (CCK-8), MV4-11. The data set is classed as cell-based. As to conditions: human, MV4-11 cells, 8 day treatment, n = 3; read-out: CC50 MV4-11 (Cellular IC50, 8-days incubation). The protocol: (§1) Approximately 1 × 10^4 JURKAT, MOLM-13, MV4-11 and HEK293T cells in RPMI 1640 (no phenol red) (100 μL) were added to a 96-well plate and treated with DMSO or a compound at indicated concentrations for 72 h or 8 days. Cell viability was measured using the CCK-8 kit (Abcam, ab228554) according to the manufacturer’s instructions.

The test system of data set [3] is MV4-11 cells. Kind of data set: Cell toxicity assay (CCK-8), MV4-11. It counts as cell-based. As to conditions: 8 day treatment, n = 3; read-out: CC50 MV4-11 (Cellular IC50, 8-days incubation). The protocol: as §1
Data set [4] is described as follows: In vitro stability assay in human plasma. The data set is classed as in vitro ADME. The note with it: 37 °C; for Plasma % of parent compound remaining (after 2h incubation): 5 μM, mean ± SD, n = 3. On the procedure:
The in vitro stability analysis of a test compound was initiated by the addition of the test compound to 90 μL of prewarmed (37 °C) human plasma with a final concentration of 5 μM. All assays were performed in a plate shaker at 37 °C and conducted in triplicate. At 0, 5, 15, 30, 60, and 120 min, 400 μL acetonitrile (with the internal standard diclofenac as 10 μg/mL) was added to deproteinize the plasma and terminate the reaction, the remaining compound was then analyzed by HPLC-MS/MS.

Data set [5] can be described thus: In vitro metabolic stability assay in HLM. The data set is classed as in vitro ADME, human. As to conditions: for CLint scaled at 1 h / half-life at 1 h: human, human liver microsomes, pH 7.4, HLM 0.5 mg/mL, NADPH 1 mM, mean ± SD, n = 3; for CLint scaled at 1 h: read-out: Liver Microsome CLint, pred; for half-life at 1 h: read-out: Liver Microsome t1/2. On the procedure:
At 0, 5, 15, 30, 45, and 60 min, 200 μL acetonitrile (with the internal standard diclofenac as 10 μg/mL) was added to terminate the reaction, the remaining compound was analyzed by HPLC-MS/MS.
For orientation: Liver microsomes are vesicles of endoplasmic reticulum, rich in cytochrome P450 enzymes.

Data set [6] in a line: Cell toxicity assay (CCK-8), MOLM-13. The data set is classed as cell-based. The note with it: human, MOLM-13 cells, 8 day treatment, n = 3; read-out: CC50 MOLM-13 (Cellular IC50, 8-days incubation). The protocol:
as §1

Data set [7] concerns MOLM-13 cells. Kind of data set: Cell toxicity assay (CCK-8), MOLM-13. The data set is classed as cell-based. As to conditions: 8 day treatment, n = 3; read-out: CC50 MOLM-13 (Cellular IC50, 8-days incubation). The protocol: as §1
The target in the next data set is T2, ENL YEATS (Homo sapiens, UniProt Q03111).
T2 construct: final concentrations of 100 nM His-ENL YEATS, 100 nM Biotin-ENL-S1
T2 sequence (Q03111 1-138 limits assumed): T1 sequence (Q03111 1-138 limits assumed)
Put plainly: AlphaScreen assay with biotinylated ENL-S1 peptide. As to conditions: inhibition of ENL YEATS binding to ENL-S1 peptide; mean ± SD, n = 3; read-out: Alpha IC50 (nM) for ENL YEATS. On the procedure: The AlphaScreen assay was carried out in 384-well plates. Manual assay setup was performed in a 40 μL reaction buffer (50 mM HEPES pH 7.4, 100 mM NaCl, 0.1% bovine serum albumin, and 0.05% CHAPS) with final concentrations of 100 nM His-ENL YEATS, 100 nM Biotin-ENL-S1, and 20 μg/mL of AlphaScreen donor and acceptor beads. The protein, peptide, and compounds were mixed and incubated for 1 h at room temperature and then incubated for 30 min in dark after adding the α beads. AlphaScreen-signals were detected by a multimode microplate reader (BioTeK Synergy Neo2) equipped with an Alpha-laser (PerkinElmer).
Background: In Alpha technology, singlet oxygen from a donor bead excites a nearby acceptor bead.

Data set [8] can be described thus: Log D at pH 7.4 (chromatographic procedure). The data set is classed as physicochemical. The note with it: n-octanol / aqueous buffer pH 7.4, pH 7.4. The protocol:
Log D at 7.4, which is a partition coefficient between n-octanol and aqueous buffer pH 7.4 of the compounds was measured on the chromatographic procedure whose condition was developed based on a published method.[35]

The nature of data set [9]: Cell toxicity assay (CCK-8), Jurkat. The data set is classed as cell-based. As to conditions: human, Jurkat cells; 8 day treatment, n = 3; read-out: CC50 Jurkat (Cellular IC50, 8-days incubation). The protocol:
as §1

Data set [10] in a line: Cell toxicity assay (CCK-8), HEK293T. It counts as cell-based. The note with it: human, HEK293T cells; 72 h (3-days) treatment, n = 3; read-out: CC50 HEK293T (Cellular IC50, 3-days incubation). The protocol: as §1
The next data set has as its target T3, NLuc-ENL YEATS (Homo sapiens, UniProt Q03111).
T3 construct: DNA encoding the ENL YEATS domain (aa 1–148) was cloned into an NLuc containing plasmid; expressed in transfected cells
T3 sequence (Q03111 1-148): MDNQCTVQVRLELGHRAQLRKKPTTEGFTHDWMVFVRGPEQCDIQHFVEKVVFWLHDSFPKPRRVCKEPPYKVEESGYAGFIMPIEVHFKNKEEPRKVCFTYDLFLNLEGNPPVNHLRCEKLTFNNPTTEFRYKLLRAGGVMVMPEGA
Kind of data set: ENL-NanoBRET inhibitor competitive assay. The data set is classed as cell-based. The note with it: HEK293T cells stably expressing NLuc-ENL YEATS, 1 μM Tracer 2, 2 h; mean ± SD, n = 3. On the procedure:
(§2) Approximately 1.8 × 10^4 HEK293T cells (100 μL) stably expressing NLuc-ENL YEATS were seeded into a white nonbinding 96-well assay plate and incubated overnight at 37 °C in a humidified 5% CO2 atmosphere. After removal of the medium, the cells were added with a tracer (with or without excess of unlabeled compound) in the Opti-MEM with 0.1% DMSO. After incubation at 37 °C for 2 h the assay plate was equilibrated at room temperature for 15 min. For BRET detection, the NanoGlo Substrate and the extracellular NanoLuc inhibitor (Promega, N2160) were diluted with Opti-MEM as described in protocol to afford detection solution. 50 μL of the detection solution was added per well and the plate was incubated for 3 min at room temperature. The donor emission was measured at 450 nm and the acceptor emission at 610 nm using a BioTek SYNERGY neo2 multimode reader. The BRET ratio was calculated according to the following formula: BRET ratio = [(acceptorsample/donorsample) – (acceptorno-tracer control/donorno-tracer control)] × 1000.
Sample procedures were followed for cell seeding as described in the previously described tracer affinity assay. After removal of the medium, the cells were added with a tracer in the medium (1.1 μM, 100 μL) and varied concentrations of a test compound in 0.1% DMSO (10 μL). The plate was thoroughly mixed on an orbital shaker for 15 s at 900 rpm. Then the cells were incubated at 37 °C, 5% CO2 for 2 h for BRET ratio detection as described previously.
In general terms: BRET reads energy transfer from a luciferase to a nearby fluorophore.

Data set [11] concerns the target T1, ENL YEATS domain. Kind of data set: Biolayer interferometry (BLI). As to conditions: biotinylated ENL YEATS on SSA biosensors, 1:1 model. It counts as binding. The protocol:
Superstreptavidin biosensors were first incubated in an assay buffer (20 mM Tris, pH 7.8, 300 mM NaCl, 0.05% Tween 20, 0.1% DMSO) for 15 min. Sensors were coated with 40–60 μg/mL of biotinylated ENL for 15 min at room temperature. Inhibitors were serially diluted across a 96-well plate in a volume of 200 μL. Association of samples to either ENL- or uncoated reference sensors was measured over 300 s and dissociation over 300 s with baseline measurements (buffer only) for 300 s. All assays were run with continuous 1000 rpm shaking. Data were analyzed using the OctetRED data analysis software with reference subtraction in which reference uncoated sensors and reference samples were subtracted. Then, global kinetic fit was performed for all sonogram curves with a 1:1 model to get KD values.

Data set [12] concerns MV4-11 cells. Kind of data set: Anti-proliferation assay, MV4-11. It counts as cell-based. The note with it: 1 μM, approximately 2 weeks. The protocol:
(§3) Cell proliferation assays were carried out in a 96-well tissue culture plate at 2 × 10^4 cells/well for all cell lines except in 200 μL with a compound added as 1:1000 dilution of DMSO stocks in triplicate. Culture density was determined every 3–4 days using the countess automated cell counter, after which 2 × 10^4 live cells were reseeded in fresh media and compound. The cumulative cell count was achieved by back calculation.

Data set [13] relates to MOLM-13 cells. Kind of data set: Anti-proliferation assay, MOLM-13. The data set is classed as cell-based. As to conditions: 1 μM, approximately 2 weeks. On the procedure: as §3
For data set [14], the target named is T4, NLuc-ENL YEATS fusion protein (Homo sapiens, UniProt Q03111).
T4 construct: DNA encoding the ENL YEATS domain (aa 1–148) was cloned into an NLuc containing plasmid; expressed in transfected cells
T4 sequence (Q03111 1-148): T3 sequence (Q03111 1-148)
Put plainly: NanoBRET apparent tracer affinity. The data set is classed as cell-based. The note with it: HEK293T cells. The protocol:
as §2

As usually defined, the Kd is the equilibrium constant for the complex coming apart. As to “H3K27cr peptide: commonly used biotinylated H3K27cr peptide for the AlphaScreen assay”, in the data set with ENL YEATS domain [1], the dissociation constant (Kd) was 34000 nM.
As a reminder, the IC50 is the concentration needed to halve the response being measured. What is called chromatographic logD is lipophilicity estimated from chromatographic retention. Low readings indicate a more hydrophilic compound, high ones a more lipophilic compound. For the compound `C[C@H]1CCCN1Cc1cc2cnc(NC(=O)c3ccc4nncn4c3)cc2[nH]1` [YR-D-120, (S)-N-(2-((2-Methylpyrrolidin-1-yl)methyl)-1H-pyrrolo[3,2-c]pyridin-6-yl)-[1,2,4]triazolo [4,3-a]pyridine-6-carboxamide], the IC50 at 8 days in data set [2] was less than 4000 nM; in data set [6], less than 4000 nM; in data set [9], more than 64000 nM. Moreover, the IC50 stood at 3280 ± 650 nM in the data set with MV4-11 cells [3], 3610 ± 490 nM with MOLM-13 cells [7], 183 ± 25 nM at ENL YEATS and 2020 nM on NLuc-ENL YEATS. Besides, in [4], the “degradation after 2 h incubation in human plasma” value is “approximately 15%”. Besides, the “Plasma % of parent compound remaining (after 2h incubation)” value in [4] came to 83.10 ± 3.49%. The CLint scaled at 1 h in [5] was determined as 4.76 mL/min/kg. Further, the half-life at 1 h in [5] turned out to be 6.15 ± 0.582 h. Also, the “parent compound remaining after 60 min incubation in HLM” value in data set [5] (in the presence of NADPH, 60 min) is listed as “over 90%”. Further, the chromatographic logD in [8] is 0.08. In [10], the IC50 at 72 h is more than 64000 nM. For the same compound, binding on ENL YEATS domain [11] was put at a Kd of 645 nM.
Consider `CC(C)C1CCN1Cc1cc2cnc(NC(=O)c3ccc4nncn4c3)cc2[nH]1` (stereo not shown) [SR-C-107], for which the “inhibition of MV4-11 cell proliferation” value with MV4-11 cells [12] is “strong inhibition of cell proliferation”. Also, the “Plasma % of parent compound remaining (after 2h incubation)” value in [4] is 90.77% and 90.77 ± 4.67%. For the same compound, the CLint scaled at 1 h in data set [5] amounted to 8.69 ± 0.01 mL/min/kg. Further, the half-life at 1 h in data set [5] amounted to 3.37 ± 0.421 h. Further, the concentration for half-maximal inhibition (IC50) at 8 days in data set [6] is less than 4000 nM; in [9], more than 64000 nM. Besides, the results for the IC50 in the data set on MOLM-13 cells [7], on ENL YEATS and on NLuc-ENL YEATS were 2570 ± 280 nM, 121 ± 28 nM and 1480 nM, respectively. Moreover, the “inhibition of MOLM-13 cell proliferation” value with MOLM-13 cells [13] was “strong inhibition of cell proliferation”. In data set [8], this compound yielded a chromatographic logD of 0.82. For the same compound, the IC50 at 72 h in [10] was more than 64000 nM. This compound also returned a Kd on ENL YEATS domain [11] of 565 nM.
As for `O=C(CCC1=[N+]2C(=Cc3ccc(-c4ccc[nH]4)n3[B-]2(F)F)C=C1)NCCCCSc1ccc(CNC(=O)c2ccc3nncn3c2)cc1` [Tracer 1, N-(4-((4-(3-(5,5-Difluoro-7-(1H-pyrrol-2-yl)-5H-4l4,5l4-dipyrrolo[1,2-c:2′,1′-f][1,3,2]diazaborinin-3-yl)propanamido)butyl)thio)benzyl)-[1,2,4]triazolo[4,3-a]pyridine-6-carboxamide], the “affinity profile of tracer for NLuc-ENL YEATS fusion protein” value in data set [14] (Figure S5a) is given as “limited affinity profile”.
The EC50 is the concentration that produces a half-maximal response. `O=C(CCC1=[N+]2C(=Cc3ccc(-c4ccc[nH]4)n3[B-]2(F)F)C=C1)NCCCC(=O)Nc1cccc(-c2cn3cc(C(=O)NC4CCC4)ccc3n2)c1` [Tracer 2, N-Cyclobutyl-2-(3-(4-(3-(5,5-difluoro-7-(1H-pyrrol-2-yl)-5H-4l4,5l4-dipyrrolo[1,2-c:2′,1′-f][1,3,2]diazaborinin-3yl)propanamido)butanamido)phenyl)imidazo[1,2-a]pyridine-6-carboxamide]: the 50% effective concentration (EC50) in [14] (nonspecific signal removed with 80 μM unlabeled compound 20) turned out to be 1460 nM.
